Assay results taken from patent publication US7645740B2, “Peptide sequence found in Laminin 5 for treating skin impairments” (Laboratoires d'Anjou Centre National de la Recherche …, priority 2004, dated 2010).

Assays:
[1] = system: HBL100 cells (human mammary epithelium); experiment: Cell adhesion test to immobilized peptides, HBL100; format: cell-based
Experimental: (§1) Dose-dependent cell adhesion of cell line HBL100 to various peptides 1, 2 and 3. The peptides were immobilized in 96-well plates at the concentrations given on the abscissa. 8×10^4 cells were deposited in each well and plates were incubated at 37° C. for 1 hour. After washing, attached cells were fixed and cell adhesion was measured as described in the methodology section.
(§2) Peptides 1, 2 and 3 were used for the cell adhesion experiments. A range of 7 decreasing concentrations (100 micrograms/ml, 50 micrograms/ml, 25 micrograms/ml, 12.5 micrograms/ml, 6.25 micrograms/ml, 3.125 micrograms/ml and 1.562 micrograms/ml) was made up by successive dilution in PBS (Phosphate Buffer Saline, KH2PO4 1.54 mM; Na2HPO4 1.42 mM; NaCl-131 mM) using a starting solution at a concentration of 1 mg/ml. These solutions were immediately distributed onto a 96-well culture plate (Greinher, Dutscher, Brumath, France) at a rate of 100 μl per well. Plates were then placed at +4° C. for 16 to 18 hours. The solutions were then removed by turning the plates and each well was saturated with a 1% PBS-BSA solution (bovine serum albumin). Three additional wells without the substrate underwent the same treatment and were used as blanks.
(§3) Epithelial cells were detached from the culture dishes using a trypsin/EDAT solution (0.05-0.02%) then suspended in DMEM medium without additives for the cell lines and in KBM-2 without additive for human keratinocytes. The number of seeded cells per well is given in the graphs (50,000 to 100,000 cells per well).
(§4) After cell seeding, the multi-well plates were placed in an incubator at 37° C. under 5% CO2. After incubation for 30 to 60 minutes, cells were observed under a phase contrast microscope in order to verify that the test was conducted correctly. The adhesion medium was then removed and each well was washed in a sterile PBS solution to remove non-adhering cells. The remaining cells, attached to the substrate, were then fixed using a solution of 1% glutaraldehyde in PBS for 15 minutes. The glutaraldehyde solution as removed and the cells were stained with a crystal violet solution diluted to 1% in distilled water for 30 minutes.
(§5) After rinsing in water several times, cells were permeabilized by means of a 0.02% triton solution for 15 minutes in order to solubilize the crystal violet. Absorbances were read at 570 nm using an ELISA plate reader (MR500, Dynatech, Guernsey, Channel Islands). Each experimental point was carried out in triplicate. The blank value represented the mean absorbance of 3 control wells (BSA). This was subtracted from each of the optical density values for the experimental points. We then calculated the mean for the three absorbance values for each of the triplicate samples.
(§6) The results are presented in the form of a graph with the absorbance values on the ordinate and the various substrate concentrations on the abscissa. Attached cells were photographed by phase contrast microscopy.
The following cells from epithelial cell lines were used initially (commonly used in preliminary studies on cell adhesion): • line HT1080 cells (human fibrosarcoma), American Type Culture Collection CCL-121. • line HB100 cells (human mammary epithelium), American Type Culture Collection HTB-124. • line A431 cells (skin epitheliods), American Type Culture Collection CRL-1555.

[2] = system: normal human keratinocytes; experiment: Cell adhesion test to immobilized peptides, normal human keratinocytes; format: cell-based
Experimental: as §1, with “normal human keratinocytes” for “cell line HBL100”, “10^5” for “8×10^4”
as §2, §3, §4, §5, §6
Freshly isolated normal human keratinocytes were used in a second experiment. As the basal keratinocytes of the epidermis are in direct contact with LN-5 in the skin, it was necessary to test their adhesion capacity to the peptide in question. Human keratinocytes were obtained from a foreskin biopsy (surgery waste, Pavillon T-Bis, Eduard Herriot Hospital). […]

HBL100 cells = experiment: Cell proliferation test (XTT), HBL100; format: cell-based, human; settings: HBL100, peptide 0.5% and 1%, serum-free medium, 5th hour
Experimental: HT1080 cells (A) and HBL100 cells (B) were seeded in 96-well plates at a rate of 10,000 cells per well. After 24 hours, the culture medium was removed and replaced with serum-free medium containing the peptide quantities given in the graphs and reagent XTT. The plates were then placed in the incubator at 37° C. and absorbance readings were taken at 1 h, 2 h, 3 h, 4 h and 5 h. Peptide-free controls were carried out on the same plate.
The effect of the peptide on cell proliferation was analysed with the aid of a calorimetric test (Cell Proliferation Kit XTT, Roche Diagnostics, Meylan, France) on the cells use for the cell adhesion test, i.e. HT1080, A431, HBL100 cells and normal human keratinocytes from young and elderly individuals.
The chemical reaction used in the test is based on the production of NADPH by living cells, leading to the reduction of yellow tetrazolium XTT salts to orange formazan salts. Absorbance was measured at 490 nm using an ELISA plate reader. Cells were seeded in 96-well plates at a rate of 10,000 cells per well (6 wells/condition) in KBM-2 culture medium. After 24 hours in culture at 37° C. with 5% CO2, the culture medium was removed and replaced with serum-free medium containing the peptide quantities given in the graphs and the test reagent. The plates were then placed in the incubator at 37° C. and absorbance readings were taken at 1 h, 2 h, 3 h, 4 h and 5 h. […]

**Q.** Which “cell adhesion to immobilized peptide” value ([1]; HBL100, 0 to 10 micrograms immobilized peptide, 8×10^4 cells per well, 1 hour 37° C., absorbance 570 nm) does the source give for “TALRIRATYGEY (Human laminin 5) [Peptide 1]” here?
**A.** led to cell adhesion

**Q.** And the “immobilized peptide quantity at which adhesion occurred” value ([1]; HBL100, FIG. 2)?
**A.** 0.31 micrograms

**Q.** What about the “immobilized peptide quantity at which maximum adhesion was achieved” value ([1]; HBL100, FIG. 2) of the same sequence?
**A.** 1.25 micrograms

**Q.** And the “cell adhesion to immobilized peptide” value ([2]; 0 to 10 micrograms immobilized peptide, 10^5 cells per well, 1 hour 37° C., absorbance 570 nm)?
**A.** effect also occurred

**Q.** And the “immobilized peptide quantity at which adhesion occurred” value ([2]; FIG. 5)?
**A.** 0.15 micrograms

**Q.** What about the “immobilized peptide quantity at which maximum adhesion was achieved” value ([2]; FIG. 5) of the same sequence?
**A.** 0.62 micrograms

**Q.** What about the “mean increase in cell proliferation compared to the control” value (HBL100 cells) of the same sequence?
**A.** 8%
